Each block holds one compound with its values, some of them ahead of it. Numbered stars: 1 amine (or outer) side, 2 acyl side, 3 side chain; on linkers, the order of the positions; unused ones are H or OH. Square brackets hold non-standard residues; d marks the D form. Peptide text beside a SMILES is read from it. X1 = NCCCC[C@H](N)CN([C@@H](CCCCN)C(=O)[*:2])[*:1]; Tle = CC(C)(C)[C@H](N)C(=O)O
Assays:
[1] = Volume of distribution in C57BL/6 mouse at 5 mg/kg, iv by LC-MS/MS analysis; assay type: ADME, organism-based; settings: in vivo
[2] = biological target: T1, Neurotensin receptor type 1 (Homo sapiens, UniProt P30989); assay: Allosteric modulation of human GFP-fused PK-tagged Gq-coupled NTR1 expressed in CHOK1 cells assessed as induction of NT (8 to 13) peptide-mediated beta-arrestin recruitment measured after 90 mins by pathhunter assay; assay type: cell-based
T1 sequence (P30989 whole entry, the tested form may be a part): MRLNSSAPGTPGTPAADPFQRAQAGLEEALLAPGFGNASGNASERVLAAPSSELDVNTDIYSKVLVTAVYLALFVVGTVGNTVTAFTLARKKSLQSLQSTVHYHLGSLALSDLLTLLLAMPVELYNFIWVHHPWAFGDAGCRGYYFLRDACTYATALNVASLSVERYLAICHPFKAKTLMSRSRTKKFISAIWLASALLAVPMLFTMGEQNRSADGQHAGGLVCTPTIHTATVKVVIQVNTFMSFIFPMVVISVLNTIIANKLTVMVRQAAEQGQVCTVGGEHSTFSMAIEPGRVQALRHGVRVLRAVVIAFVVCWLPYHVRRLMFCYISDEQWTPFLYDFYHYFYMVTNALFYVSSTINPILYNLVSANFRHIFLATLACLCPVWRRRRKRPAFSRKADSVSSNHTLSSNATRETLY

[3] = Clearance in C57BL/6 mouse at 5 mg/kg, iv by LC-MS/MS analysis; assay type: ADME, organism-based; settings: in vivo
[4] = Toxicity in DAT knockout C57BL/6J mouse assessed as hypothermia at 1 mg/kg, ip; assay type: organism-based; settings: in vivo
[5] = Toxicity in DAT knockout C57BL/6J mouse assessed as hypotension at 1 mg/kg, ip; assay type: organism-based; settings: in vivo
[6] = biological target: Neurotensin receptor type 1 (Rattus norvegicus, UniProt P20789); assay: Displacement of [125I]neurotensin from rat brain NTR1
Chain of Neurotensin receptor type 1 (Rattus norvegicus, UniProt P20789) (P20789 whole entry): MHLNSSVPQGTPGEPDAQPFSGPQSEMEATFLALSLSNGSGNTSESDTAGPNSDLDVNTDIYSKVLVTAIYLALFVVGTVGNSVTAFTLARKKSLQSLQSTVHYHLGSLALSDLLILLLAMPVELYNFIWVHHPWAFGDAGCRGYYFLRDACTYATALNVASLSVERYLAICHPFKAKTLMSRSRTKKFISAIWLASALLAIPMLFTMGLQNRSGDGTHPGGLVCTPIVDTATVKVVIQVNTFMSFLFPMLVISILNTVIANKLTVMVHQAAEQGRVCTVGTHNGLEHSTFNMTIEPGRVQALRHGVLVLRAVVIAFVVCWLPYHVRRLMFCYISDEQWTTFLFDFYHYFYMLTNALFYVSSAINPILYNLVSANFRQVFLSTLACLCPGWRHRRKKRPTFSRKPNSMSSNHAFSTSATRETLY

[7] = biological target: T1, Neurotensin receptor type 1; assay: Positive allosteric modulation of recombinant human NTR1 expressed in HEK293 cells assessed as increase in [125I]-neurotensin binding measured after 45 mins; assay type: cell-based
[8] = Clearance in Sprague-Dawley rat at 5 mg/kg, iv by LC-MS/MS analysis; assay type: ADME, organism-based; settings: in vivo
[9] = Toxicity in DAT knockout C57BL/6J mouse assessed as hypotension at 12 mg/kg, ip; assay type: organism-based; settings: in vivo
[10] = Toxicity in DAT knockout C57BL/6J mouse assessed as hypothermia at 12 mg/kg, ip; assay type: organism-based; settings: in vivo
[11] = Ratio of drug level in brain to plasma of Sprague-Dawley rat at 30 mg/kg, po measured after 4 to 8 hrs by LC-MS/MS analysis; assay type: ADME, organism-based; settings: brain and plasma, read-out: BPR
[12] = Toxicity in DAT knockout C57BL/6J mouse assessed as hypotension at 10 to 100 mg/kg, po; assay type: organism-based; settings: in vivo
[13] = AUC in Sprague-Dawley rat at 30 mg/kg, po by LC-MS/MS analysis; assay type: ADME, organism-based; settings: in vivo
[14] = Oral bioavailability in Sprague-Dawley rat at 30 mg/kg by LC-MS/MS analysis; assay type: ADME, organism-based; settings: in vivo
[15] = Half life in Sprague-Dawley rat at 30 mg/kg, po by LC-MS/MS analysis; assay type: ADME, organism-based; settings: in vivo
[16] = Ratio of drug level in brain to plasma of C57BL/6 mouse at 30 mg/kg, po measured after 1 hr by LC-MS/MS analysis; assay type: ADME, organism-based
[17] = Oral bioavailability in C57BL/6 mouse at 30 mg/kg by LC-MS/MS analysis; assay type: ADME, organism-based; settings: in vivo
[18] = Half life in C57BL/6 mouse at 30 mg/kg, po by LC-MS/MS analysis; assay type: ADME, organism-based; settings: in vivo
[19] = Toxicity in DAT knockout C57BL/6J mouse assessed as hypothermia at 10 to 100 mg/kg, po; assay type: organism-based; settings: in vivo
[20] = AUC in C57BL/6 mouse at 30 mg/kg, po by LC-MS/MS analysis; assay type: ADME, organism-based; settings: in vivo
[21] = Ratio of drug level in brain to plasma of Sprague-Dawley rat at 30 mg/kg, po measured after 1 hr by LC-MS/MS analysis; assay type: ADME, organism-based; settings: brain and plasma, read-out: BPR
[22] = Cmax in C57BL/6 mouse at 30 mg/kg, po by LC-MS/MS analysis; assay type: ADME, organism-based; design: dose 30 mg/kg, route oral; settings: in vivo

- Vd [1]: 7.68 L/kg
- EC50 [2]: 98 nM
- clearance [3]: 79.4 mL/min/kg
Structure (SMILES): COc1ccccc1C1CCN(c2nc(C3(C)CC3)nc3ccc(N(C)CCO)cc23)CC1

Structure (SMILES): CCOC(=O)[C@H](CC(C)C)NC(=O)[C@@H](NC(=O)[C@H](Cc1c[nH]c2ccccc12)NC(=O)[C@@H]1CCCN1C(=O)[C@H](CCCCN)NC[C@@H](N)CCCCN)C(C)(C)C (H-[X1]PW[Tle]L-OEt)
- Activity [4]: Toxic
- Activity [5]: Toxic

- IC50 [6]: 82 nM
Structure (SMILES): COc1cccc(OC)c1-c1cc(C(=O)NC2(C(=O)O)C3CC4CC(C3)CC2C4)nn1-c1ccnc2cc(Cl)ccc12 (stereo not drawn) [REMINERTANT]

- EC50 [7]: 140 nM
- clearance [8]: 81 mL/min/kg
- EC50 [2]: 340 nM
- clearance [3]: 44.8 mL/min/kg
- Kp [11]: 0.98
Structure (SMILES): COc1ccccc1C1CCN(c2nc(C3(F)CC3)nc3ccc(N(C)CCO)cc23)CC1
- Activity [9]: Non-Toxic
- Activity [10]: Non-Toxic

- AUC [13]: 2693 ng·h/mL
- bioavailability [14]: 48%
- t1/2 [15]: 2.23 h
- BPR [16]: 0.54
- bioavailability ([17]; C57BL/6, mouse): 45%
- t1/2 [18]: 5.28 h
- AUC [20]: 4824 ng·h/mL
- Kp at 1 h [21]: 0.98
Structure (SMILES): COc1ccccc1C1CCN(c2nc(C3(F)CC3)nc3ccc(N(C)CCO)cc23)CC1.Cl
- Activity [12]: Non-Toxic
- Activity [19]: Non-Toxic

- Cmax [22]: 627 ng/mL
- BPR [16]: 0.35
- F ([17]; mouse): 52%
- t1/2 [18]: 2.9 h
- AUC [20]: 3324 ng·h/mL
Structure (SMILES): COc1ccccc1C1CCN(c2nc(C3(C)CC3)nc3ccc(N(C)CCO)cc23)CC1.Cl

Source: ChEMBL document CHEMBL4373709 (J Med Chem, 2019)
